Assay results taken from PMC4122355, “Inhibitor of the Tyrosine Phosphatase STEP Reverses Cognitive Deficits in a Mouse Model of Alzheimer's Disease” (PLoS Biology, 2014).

Assays:
STEP = biological target: T1, STEP (Mus musculus, UniProt P54830); assay: Recovery of STEP activity by reducing agents; assay type: biochemical; conditions: after 1 h, DMSO control = 100%
T1 sequence (P54830 1-541): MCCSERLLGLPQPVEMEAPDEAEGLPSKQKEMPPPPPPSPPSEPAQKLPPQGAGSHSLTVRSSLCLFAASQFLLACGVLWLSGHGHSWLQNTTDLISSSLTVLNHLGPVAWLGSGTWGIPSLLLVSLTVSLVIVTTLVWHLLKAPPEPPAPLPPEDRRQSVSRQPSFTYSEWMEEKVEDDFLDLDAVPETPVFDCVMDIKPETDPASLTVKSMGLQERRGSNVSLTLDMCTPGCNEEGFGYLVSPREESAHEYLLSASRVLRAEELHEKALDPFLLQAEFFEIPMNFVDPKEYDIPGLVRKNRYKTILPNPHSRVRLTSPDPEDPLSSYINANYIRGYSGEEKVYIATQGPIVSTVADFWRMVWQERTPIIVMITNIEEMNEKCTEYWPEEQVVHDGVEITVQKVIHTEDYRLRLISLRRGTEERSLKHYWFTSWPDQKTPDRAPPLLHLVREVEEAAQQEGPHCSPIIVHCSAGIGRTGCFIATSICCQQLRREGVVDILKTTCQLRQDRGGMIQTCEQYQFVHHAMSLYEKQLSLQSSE
Experimental: Each sample was aliquoted out and 50 µL was transferred to wells of a 96-well microtiter plate containing 40 µL of 2× assay buffer with added reductant (GSH or DTT, 1 mM final concentration) and shaken for 0, 15, 30, or 60 additional minutes at ambient temperature. The reaction was started by addition of 10 µL of 10× pNPP substrate (stock, 20 mM, 2 mM in assay; total assay volume, 100 µL), and reaction progress was immediately monitored at 405 nm at a temperature of 27°C. The initial rate data collected were used to determine enzyme activity standardized to the DMSO controls.

PTP1B = biological target: T2, PTP1B (Homo sapiens, UniProt P18031); assay: Selectivity pNPP assay, full-length PTPs: PTP1B; assay type: biochemical; conditions: full-length PTP, 10 nM, 500 µM pNPP
T2 construct: GST (N); host or cells: E. coli BL21 (DE3)
T2 sequence (P18031 1-435): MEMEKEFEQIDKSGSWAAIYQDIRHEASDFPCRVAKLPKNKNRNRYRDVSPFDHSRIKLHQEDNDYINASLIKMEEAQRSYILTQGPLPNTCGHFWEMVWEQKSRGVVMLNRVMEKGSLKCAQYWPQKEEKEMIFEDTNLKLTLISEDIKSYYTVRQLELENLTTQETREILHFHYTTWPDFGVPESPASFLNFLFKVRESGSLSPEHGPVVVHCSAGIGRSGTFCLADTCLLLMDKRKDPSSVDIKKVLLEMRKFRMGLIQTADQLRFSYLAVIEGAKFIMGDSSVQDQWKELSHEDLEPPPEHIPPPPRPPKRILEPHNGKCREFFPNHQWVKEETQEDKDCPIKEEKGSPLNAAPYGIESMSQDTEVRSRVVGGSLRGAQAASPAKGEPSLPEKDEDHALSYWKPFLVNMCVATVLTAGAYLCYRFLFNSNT
From the text: Constructs were transformed into BL21 (DE3) E. coli cells. Fusion proteins were purified on a glutathione sepharose column.

3xTg-AD and WT mice = assay: Y-maze alternation task; assay type: in vivo, mouse; conditions: 10 mg/kg i.p. 3 h prior
Experimental: The Y-maze apparatus consisted of three dark gray arms (42×4.8×20 cm). […] The total number of arm entries was recorded, as was the number of entries representing alternation behavior (i.e., sequential entry into all three arms). All four paws of the mouse had to enter an arm for it to count as an arm entry. Percentage spontaneous alternation = (number of alternations)/(total arm entries – 2). […] A total number of 20 WT and 11 AD mice were used in the Y-maze task.

[1] = cited from earlier work
[2] = Stability in imidazole buffer by 19F NMR; assay type: physicochemical; conditions: 1 h
Experimental: The tube was allowed to incubate at ambient temperature with shaking for 1 h. The mixture was diluted with 150 µL of DMSO-d6 and transferred to an NMR tube containing a capillary of trifluoroacetic acid as an external standard (−76.55 ppm). The stability of the compound in the buffer was confirmed by observing no differences in the sensitive ^19F-NMR spectra (Figure S4). As a control for compound modification, the experiment was repeated with the addition of 1 mM GSH in the incubation buffer.

[3] = test system: GluN2B (Y1472), Pyk2 (Y402), ERK1/2 (Y204/187) in cortical neurons; assay: Tyr phosphorylation of STEP substrates in cortical neuronal cultures (Western blot); assay type: cell-based, rat; conditions: 1 µM dose, 1 h, relative to vehicle
Experimental: Primary cortical neurons were isolated from Sprague Dawley rat embryos (E18) (Charles River Laboratories, Wilmington, MA) as previously described. In some experiments, cortical neurons were made from WT and STEP KO mouse embryos (E18). Neurons were allowed to grow for 18–21 d in CO2 incubator before addition of compounds at indicated doses for 1 h. Immediately following treatments, neurons were lysed in RadioImmuno Precipitation Assay (RIPA) buffer supplied with protease inhibitor cocktail (Roche Applied Science, Indianapolis, IN) and phosphatase inhibitors (NaF and Na3VO4). All experiments were replicated four times with four independent batches of cultures.
Samples were prepared and resolved by SDS-PAGE, transferred to nitrocellulose membrane, and incubated with phospho-specific antibodies (anti-pY^204/187 ERK1/2, anti-pY^402 Pyk2, anti-pY^1472 GluN2B) or total protein antibodies (anti-ERK2, anti-Pyk2, and anti-NR2B) overnight at 4°C. Immunoreactivity was visualized using a Chemiluminescent substrate kit (Pierce Biotechnology, Rockford, IL) and detected using a G:BOX with the image program GeneSnap (Syngene, Cambridge, UK). All densitometric quantifications were performed using the Genetools program.

[4] = cited from earlier work; remark: listed apart in the source

## Cl.Nc1cc(C(F)(F)F)cc2c1SSSSS2 [TC-2153, 8-(trifluoromethyl)-1,2,3,4,5-benzopentathiepin-6-amine hydrochloride]
STEP; STEP 200 nM preincubated with 5 µM TC-2153, 1 mM DTT
  Recovery of STEP activity with DTT: 75%
STEP; STEP 200 nM preincubated with 5 µM TC-2153, 1 mM GSH
  Recovery of STEP activity with GSH: 29%
PTP1B
  IC50: 723.9 ± 1.2 nM
3xTg-AD and WT mice
  Y-maze arm entries (general motor activity): no significant change in arm entries
3xTg-AD and WT mice; WT mice, vehicle 74.98±2.19
  Y-maze percentage spontaneous alternation, WT mice: 73.45±3.19
[1]
  LD50 (acute toxicity): > 1,000 mg/kg
[2]; 1 mM GSH in pH 7.0 imidazole buffer
  Stability with GSH (19F NMR): compound modification clearly observed
[2]; pH 7.0 imidazole buffer
  Stability in assay conditions (19F NMR): stable and did not degenerate in the assay conditions
[3]
  pERK1/2 (Y204/187), phospho-signal normalized to total protein and GAPDH: 2.39±0.18
  pGluN2B (Y1472), phospho-signal normalized to total protein and GAPDH: 2.07±0.15
  pPyk2 (Y402), phospho-signal normalized to total protein and GAPDH: 1.81±0.21
[4]
  Solubility in aqueous solution: reasonable solubility in aqueous solution
